Measurements taken from patent US7417156B2, “Orally active, antimalarial, anticancer, artemisinin-derived trioxane dimers” (Johns Hopkins University, priority 2002, dated 2008).

Tests used:
[1] = Solubility in water at pH 7.4; assay type: physicochemical
[2] = test system: male CD-1 mice; assay: Acute toxicity study, single intraperitoneal injection; conditions: for Mortality: single ip, male CD-1 mice
Protocol: Each compound was dissolved in DMSO (Mallinkrodt Lot No. V18H15) to achieve a concentration of 200 mg/ml, and then 3 parts sesame oil (Spectrum Lot No. M10656) was added to make a working concentration of 50 mg/ml for dose administration. Stability, strength, and uniformity of the test articles in the dose formulations were not determined for this study.
Forty-two CD1 male mice purchased from Charles River Laboratories (Wilmington, Mass.) were used in the study. Mice were quarantined for 3 days prior to initiation of the study.
Mice were weighed and randomized into treatment groups on the day prior to the first dose administration. Due to limitations in the amount of available test materials, fewer mice in 1000 mg/kg groups were treated than specified in the protocol. The numbers of animals intended to be used and actually used with each compound at each dose level are shown in the table below; the only differences are in the high-dose groups.
Surviving animals were sacrificed on Day 8 and blood was collected for clinical pathology evaluations.
Mortality and morbidity were checked twice daily on weekdays and once daily on the weekend, see Table VI. Animals were weighed daily and prior to necropsy.

[3] = test system: P388 leukemia; conditions: NCI Report on NSC 369397; cited from earlier work
[4] = test system: P. berghei; conditions: P. berghei-infected mice; cited from earlier work
[5] = test system: P. vivax and P. falciparum; conditions: 2099 cases of malaria, different dosage forms; cited from earlier work
[6] = test system: Ehrlich ascites tumor (EAT) cells; conditions: MTT assay; cited from earlier work

For C[C@@H]1CC[C@H]2[C@@H](C)C(CC(O)(COC(=O)CCC(=O)O)CC3OC4O[C@]5(C)CC[C@H]6[C@H](C)CC[C@@H]([C@H]3C)C46OO5)OC3O[C@]4(C)CCC1C32OO4 (stereo partly shown) [Compound 9, tertiary alcohol primary succinate ester], the “water solubility relative to artelinic acid” value [1] was roughly 30 times.
With CC1CCC2C(C)C(CC(COC(=O)c3cc[n+]([O-])cc3)CC3OC4OC5(C)CCC6C(C)CCC(C3C)C46OO5)OC3OC4(C)CCC1C32OO4 (stereo not shown) [Compound 13, bis-trioxane primary alcohol isonicotinate N-oxide] the Mortality ([2]; 125 mg/kg) was “No death”, the Mortality ([2]; 250 mg/kg) was “No death” and the Mortality ([2]; 500 mg/kg) was 3/3 dead. The Mortality ([2]; 750 mg/kg) was 2/3 dead and the “toxicity relative to sodium artesunate in words” value ([2]; intraperitoneally to mice as a single dose) was “less toxic”.
For C[C@@H]1CC[C@H]2[C@@H](C)C(=O)O[C@@H]3O[C@]4(C)CC[C@@H]1[C@]32OO4 [Artemisinin], the activity in words [3] is listed as “inactive”, the SD90 [4] is listed as 6.20 mg/kg and the clinical outcome [5] is listed as “clinical cure of all patients”. The IC50 [6] was 29.8 µM.
